The values below come from patent publication US20090035306A1 (KALYPSYS, INC., priority 2006, published 2009).

Structures are written as SMILES.

This assay addresses T1, human TGR5 (Homo sapiens, UniProt Q8TDU6).
T1 construct: expressed in transfected cells
T1 sequence (Q8TDU6 1-330): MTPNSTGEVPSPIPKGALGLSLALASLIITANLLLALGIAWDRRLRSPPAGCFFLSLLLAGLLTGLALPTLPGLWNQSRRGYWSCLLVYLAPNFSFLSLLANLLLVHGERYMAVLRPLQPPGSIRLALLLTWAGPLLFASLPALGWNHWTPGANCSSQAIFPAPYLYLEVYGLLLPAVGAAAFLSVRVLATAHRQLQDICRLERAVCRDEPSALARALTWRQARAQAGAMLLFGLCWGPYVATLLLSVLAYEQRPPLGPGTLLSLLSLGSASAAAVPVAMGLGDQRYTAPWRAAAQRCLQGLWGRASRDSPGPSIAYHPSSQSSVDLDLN
Nature of the assay: cAMP production assay in HEK293 cells stably expressing TGR5 (LANCE TR-FRET). The class given is cell-based. The conditions noted are these: 30 minutes stimulation, read-out: cAMP Production in 293-TGR5 Cells EC50. The method in brief:
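HEK293 cells stably transfected with human TGR5, incubated overnight in DMEM with 0.1% FBS, then given IBMX (1 mM final) and stimulated with compounds for 30 minutes. cAMP measured by LANCE TR-FRET after 1-7 h detection at room temperature. EC50 values reported as ≦10 μM (+) or >10 μM (−).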
(Changes in cAMP serve as a functional read-out for many G protein-coupled receptors.)
Broadly, the EC50 is the midpoint of the concentration-response curve. Consider `O=C(O)c1ccc(CNn2c(-c3ccccc3F)nc3ccccc3c2=O)cc1` [Example 101, 4-((2-(2-fluorophenyl)-4-oxoquinazolin-3(4H)-ylamino)methyl)benzoic acid], for which the concentration for a half-maximal effect (EC50) is greater than 10 µM.

Turning to `O=c1c2cc(F)ccc2nc(-c2cccc(F)c2)n1NCc1ccccc1` [Example 103, 3-(benzylamino)-6-fluoro-2-(3-fluorophenyl)quinazolin-4(3H)-one], the concentration giving a half-maximal response (EC50) is no more than 10 µM.

Take `O=c1c2ccccc2nc(-c2ccccc2)n1NCc1ccc(Br)cc1` [Example 104, 3-(4-bromobenzylamino)-2-phenylquinazolin-4(3H)-one]: the EC50 was no more than 10 µM.

Consider `O=c1c2ccccc2nc(-c2cccc(F)c2)n1NCc1ccc(Br)cc1` [Example 105, 3-(4-bromobenzylamino)-2-(3-fluorophenyl)quinazolin-4(3H)-one], for which the half-maximal effective concentration (EC50) was no more than 10 µM.

As for `O=c1c2cc(F)ccc2nc(-c2cccc(F)c2)n1NCc1ccc(Br)cc1` [Example 106, 3-(4-bromobenzylamino)-6-fluoro-2-(3-fluorophenyl)quinazolin-4(3H)-one], the EC50 is no more than 10 µM.

As for `O=c1c2ccccc2nc(-c2cccc(F)c2)n1NCc1ccc(F)c(C(F)(F)F)c1` [Example 107, 3-(4-fluoro-3-(trifluoromethyl)benzylamino)-2-(3-fluorophenyl)quinazolin-4(3H)— one], the concentration for a half-maximal effect (EC50) was no more than 10 µM.

`O=c1c2ccc(F)cc2nc(-c2ccc(F)cc2)n1NCc1ccc(Cl)cc1` [Example 108, 3-(4-chlorobenzylamino)-7-fluoro-2-(4-fluorophenyl)quinazolin-4(3H)-one]: the EC50 was no more than 10 µM.

For the compound `Cc1ccc(-c2nc3ccccc3c(=O)n2NCc2ccc(Br)cc2)cc1Cl` [Example 109, 3-(4-bromobenzylamino)-2-(3-chloro-4-methylphenyl)quinazolin-4(3H)-one], the concentration for a half-maximal effect (EC50) was no more than 10 µM.

Turning to `Cc1ccc(-c2nc3ccccc3c(=O)n2NCc2ccc(Cl)cc2)cc1Cl` [Example 110, 2-(3-chloro-4-methylphenyl)-3-(4-chlorobenzylamino)quinazolin-4(3H)-one], the concentration giving a half-maximal response (EC50) is no more than 10 µM.

With `Cc1cccc2nc(-c3ccc(F)cc3)n(NCc3ccc(Br)cc3)c(=O)c12` [Example 111, 3-(4-bromobenzylamino)-2-(4-fluorophenyl)-5-methylquinazolin-4(3H)-one], the EC50 was no more than 10 µM.

As for `O=c1c2c(F)cccc2nc(-c2ccc(F)cc2)n1NCc1ccc(Br)cc1` [Example 112], the EC50 is no more than 10 µM.

On to `O=c1c2cccc(O)c2nc(-c2ccc(F)cc2)n1NCc1ccc(Br)cc1` [Example 113, 3-(4-bromobenzylamino)-2-(4-fluorophenyl)-8-hydroxyquinazolin-4(3H)-one], for which the EC50 is no more than 10 µM.

`O=c1c2cccc(O)c2nc(-c2ccc(F)cc2)n1NCc1ccc(Cl)cc1` [Example 114, 3-(4-chlorobenzylamino)-2-(4-fluorophenyl)-8-hydroxyquinazolin-4(3H)-one]: the half-maximal effective concentration (EC50) is no more than 10 µM.

Regarding `COc1ccc(-c2nc3ccccc3c(=O)n2NCc2ccc(Br)cc2)cn1` [Example 116, 3-(4-bromobenzylamino)-2-(6-methoxypyridin-3-yl)quinazolin-4(3H)— one], the concentration giving a half-maximal response (EC50) is no more than 10 µM.

As for `O=c1c2ccccc2nc(-c2ccc(O)nc2)n1NCc1ccc(Br)cc1` [Example 117, 3-(4-bromobenzylamino)-2-(6-hydroxypyridin-3-yl)quinazolin-4(3H)-one], the concentration giving a half-maximal response (EC50) is no more than 10 µM.

`COc1ccc(-c2nc3ccccc3c(=O)n2NCc2ccc(Br)cc2)cc1O` [Example 118, 3-(4-bromobenzylamino)-2-(3-hydroxy-4-methoxyphenyl)quinazolin-4(3H)-one]: the EC50 is no more than 10 µM.

On to `COc1ccc(-c2nc3ccccc3c(=O)n2NCc2ccc(Cl)cc2)cc1O` [Example 119, 3-(4-chlorobenzylamino)-2-(3-hydroxy-4-methoxyphenyl)quinazolin-4(3H)— one], for which the concentration for a half-maximal effect (EC50) is no more than 10 µM.
